Laboratory results: patent US20260317299A1, “PIKFYVE PROTEIN KINASE DEGRADATION AGENT AND USE THEREOF” (Shanghai Institute of Organic Chemistry, Chinese Academy of …, priority 2023, published 2026)

Biological target: T1, PIKfyve (Homo sapiens, UniProt Q9Y2I7)
T1 construct: endogenous in cells; host or cells: VCaP
Test: Degradation of PIKfyve proteins in VCaP tumor cells (24 h, Western blot)
Type: cell-based
Settings: 37° C., compared with DMSO control, WB, read-out: DC50 (concentration that achieves 50% degradation activity)
Procedure: Method: 200 μL of cells at a density of 5×10^6 cells/ml were inoculated into a 6-well plate, and then different concentrations of drugs were added. The cells were treated at 37° C. for 24 h. The […] was collected and washed with PBS twice. Then, 100-200 μL of 1×SDS lysate was added, and the cell lysate was collected into a centrifuge tube. The cells were disrupted ultrasonically for 10-20 sec, and boiled for 10 min. Protein samples were subjected to SDS-PAGE electrophoresis at a voltage of 90 V, transferred to PVDF membranes at 110 V, blocked with 5% BSA for 4 h, incubated with primary antibodies (PIKfyve, GAPDH) at 4° C. overnight, and incubated with secondary antibodies (anti-Rabbit IgG or anti-Mouse IgG) at room temperature. The membranes were washed with TBST buffer, developed with an ECL developing solution, and then imaged to obtain protein band signals, with single-concentration WB results as shown in FIG. 1. Compared with the DMSO control group, the concentration that achieves 50% degradation activity is defined as DC50.

T1 sequence (Q9Y2I7 whole entry): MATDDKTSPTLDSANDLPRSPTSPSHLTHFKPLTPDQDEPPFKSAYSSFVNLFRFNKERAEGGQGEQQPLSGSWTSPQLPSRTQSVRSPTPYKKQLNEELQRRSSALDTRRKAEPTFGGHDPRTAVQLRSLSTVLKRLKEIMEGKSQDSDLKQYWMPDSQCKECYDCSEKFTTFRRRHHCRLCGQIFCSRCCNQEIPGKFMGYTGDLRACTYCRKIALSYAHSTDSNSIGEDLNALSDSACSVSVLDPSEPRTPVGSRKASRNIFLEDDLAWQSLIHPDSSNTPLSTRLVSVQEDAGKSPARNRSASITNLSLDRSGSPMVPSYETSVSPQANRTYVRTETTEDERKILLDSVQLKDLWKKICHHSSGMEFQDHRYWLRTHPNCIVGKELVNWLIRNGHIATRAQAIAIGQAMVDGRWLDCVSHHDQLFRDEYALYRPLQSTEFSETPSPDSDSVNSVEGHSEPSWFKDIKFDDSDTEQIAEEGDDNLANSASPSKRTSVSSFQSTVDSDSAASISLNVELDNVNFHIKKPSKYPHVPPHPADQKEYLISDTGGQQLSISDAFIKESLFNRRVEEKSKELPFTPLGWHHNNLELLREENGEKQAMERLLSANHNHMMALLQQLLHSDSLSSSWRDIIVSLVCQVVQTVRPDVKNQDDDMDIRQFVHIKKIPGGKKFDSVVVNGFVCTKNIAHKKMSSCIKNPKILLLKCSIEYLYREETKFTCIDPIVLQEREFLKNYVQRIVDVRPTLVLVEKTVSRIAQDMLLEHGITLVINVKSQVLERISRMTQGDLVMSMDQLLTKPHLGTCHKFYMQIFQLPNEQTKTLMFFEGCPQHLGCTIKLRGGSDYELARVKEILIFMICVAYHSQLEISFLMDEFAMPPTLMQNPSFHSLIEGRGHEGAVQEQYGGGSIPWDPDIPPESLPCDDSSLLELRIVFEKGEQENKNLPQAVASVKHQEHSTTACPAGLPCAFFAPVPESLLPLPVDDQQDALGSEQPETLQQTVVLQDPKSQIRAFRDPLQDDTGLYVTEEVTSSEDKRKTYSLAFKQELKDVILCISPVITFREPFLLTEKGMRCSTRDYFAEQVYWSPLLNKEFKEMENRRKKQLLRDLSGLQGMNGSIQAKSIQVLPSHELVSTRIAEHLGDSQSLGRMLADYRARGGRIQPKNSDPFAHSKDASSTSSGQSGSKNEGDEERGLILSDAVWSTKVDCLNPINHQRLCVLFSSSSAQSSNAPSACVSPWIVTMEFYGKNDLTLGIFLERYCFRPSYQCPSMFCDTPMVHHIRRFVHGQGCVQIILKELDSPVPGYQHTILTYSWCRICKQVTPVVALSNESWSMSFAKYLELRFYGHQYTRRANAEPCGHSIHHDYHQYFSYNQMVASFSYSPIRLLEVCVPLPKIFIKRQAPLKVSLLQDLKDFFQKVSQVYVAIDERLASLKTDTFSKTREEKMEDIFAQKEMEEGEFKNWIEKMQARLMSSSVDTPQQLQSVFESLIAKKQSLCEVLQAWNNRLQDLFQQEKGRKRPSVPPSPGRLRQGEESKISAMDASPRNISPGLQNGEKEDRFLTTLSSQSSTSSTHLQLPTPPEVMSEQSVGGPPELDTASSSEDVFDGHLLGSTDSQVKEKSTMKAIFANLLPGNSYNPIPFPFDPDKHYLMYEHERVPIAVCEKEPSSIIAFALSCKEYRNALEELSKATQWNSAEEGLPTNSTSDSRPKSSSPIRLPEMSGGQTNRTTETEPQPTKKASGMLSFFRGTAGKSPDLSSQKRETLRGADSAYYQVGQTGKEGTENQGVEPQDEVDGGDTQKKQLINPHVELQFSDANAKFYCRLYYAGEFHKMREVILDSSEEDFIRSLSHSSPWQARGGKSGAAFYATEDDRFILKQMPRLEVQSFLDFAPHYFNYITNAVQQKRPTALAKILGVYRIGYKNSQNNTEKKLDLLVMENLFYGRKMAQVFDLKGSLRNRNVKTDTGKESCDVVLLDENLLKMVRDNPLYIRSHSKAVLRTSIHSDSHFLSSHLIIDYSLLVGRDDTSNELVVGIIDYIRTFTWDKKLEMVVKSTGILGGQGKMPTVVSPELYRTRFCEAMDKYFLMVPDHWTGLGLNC

Row | Compound | DC50 [nM]
1 | Cc1cccc(/C=N/Nc2cc(N3CCOCC3)nc(OCCc3ccc(NC(=O)CCCCCCCCC(=O)N[C@H](C(=O)N4C[C@H](O)C[C@H]4C(=O)NCc4ccc(-c5scnc5C)cc4)C(C)(C)C)cc3)n2)c1 [Example 40, N^1—((S)-1-((2S,4R)-4-hydroxy-2-((4-(4-methylthiazol-5-yl)benzyl)carbamoyl)pyrrolidine-1-yl)-3,3-dimethyl-1-oxobutan-2-yl)-N^10-(4-(2-((4-(2-((E)-3-methylbenzylidene) hydrazino)-6-morpholinopyrimidin-2-yl)oxy)ethyl)phenyl)decanediamide] | 1 to 100
2 | Cc1cccc(/C=N/Nc2cc(N3CCOCC3)nc(OCCc3ccc(NC(=O)CCCCC(=O)N[C@H](C(=O)N4C[C@H](O)C[C@H]4C(=O)NCc4ccc(-c5scnc5C)cc4)C(C)(C)C)cc3)n2)c1 [Example 38, N^1—((S)-1-((2S,4R)-4-hydroxy-2-((4-(4-methylthiazol-5-yl)benzyl)carbamoyl)pyrrolidine-1-yl)-3,3-dimethyl-1-oxobutan-2-yl)-N^6-(4-(2-((4-(2-((E)-3-methylbenzylidene) hydrazino)-6-morpholinopyrimidin-2-yl)oxy)ethyl)phenyl)adipamide] | 1 to 100
3 | Cc1cccc(-c2ccn(-c3cc(N4CCOCC4)nc(OC4CCN(c5ccc(NC(=O)NC6CCN(C(=O)CC[C@H](NC(=O)[C@@H]7C[C@@H](O)CN7C(=O)[C@@H](NC(=O)C7(F)CC7)C(C)(C)C)c7ccc(-c8scnc8C)cc7)CC6)cc5)CC4)n3)n2)c1 [Example 83, (2S,4R)-1-((S)-2-(1-fluorocyclopropane-1-carboxamido)-3,3-dimethylbutanoyl)-4-hydroxy-N—((S)-1-(4-(4-methylthiazol-5-yl)phenyl)-4-(4-(3-(4-(4-((4-morpholino-6-(3-(m-tolyl)-1H-pyrazol-1-yl)pyrimidin-2-yl)oxy)piperidin-1-yl)phenyl)ureido)piperidin-1-yl)-4-oxobutyl)pyrrolidine-2-carboxamide] | 1 to 100
4 | Cc1cccc(-c2ccn(-c3cc(N4CCOCC4)nc(OCCc4ccc(N5CCN(C(=O)CC[C@H](NC(=O)[C@@H]6C[C@@H](O)CN6C(=O)[C@@H](NC(=O)C6(F)CC6)C(C)(C)C)c6ccc(-c7scnc7C)cc6)CC5)cc4)n3)n2)c1 [Example 76, (2S,4R)-1-((S)-2-(1-fluorocyclopropane-1-carboxamido)-3,3-dimethylbutanoyl)-4-hydroxy-N—((S)-1-(4-(4-methylthiazol-5-yl)phenyl)-4-(4-(4-(2-((4-morpholino-6-(3-(m-tolyl)-1H-pyrazol-1-yl)pyrimidin-2-yl)oxy)ethyl)phenyl)piperazin-1-yl)-4-oxobutyl)pyrrolidine-2-carboxamide] | 1 to 100
5 | Cc1cccc(/C=N/Nc2cc(N3CCOCC3)nc(OCCc3ccc(NC(=O)CCCCCOc4ccc5c(c4)C(=O)N(C4CCC(=O)NC4=O)C5=O)cc3)n2)c1 (stereo not drawn) [Example 8, (E)-6-((2-(2,6-dioxopiperidin-3-yl)-1,3-dioxoisoindolin-5-yl)oxy)-N-(4-(2-((4-(2-(3-methylbenzylidene)hydrazino)-6-morpholinopyrimidin-2-yl)oxy)ethyl)phenyl)hexanamide] | 100 to 10000
6 | Cc1cccc(-c2ccn(-c3cc(N4CCOCC4)nc(OC4CCN(c5ccc(NC(=O)NC6CCN(c7cc8c(cc7F)C(=O)N(C7CCC(=O)NC7=O)C8=O)CC6)cc5)CC4)n3)n2)c1 (stereo not drawn) [Example 92, 1-(1-(2-(2,6-Dioxopiperidin-3-yl)-6-fluoro-1,3-dioxoisoindolin-5-yl)piperidin-4-yl)-3-(4-(4-((4-morpholino-6-(3-(m-tolyl)-1H-pyrazol-1-yl)pyrimidin-2-yl)oxy)piperidin-1-yl)phenyl)urea] | 100 to 10000
7 | Cc1cccc(/C=N/Nc2cc(N3CCOCC3)nc(OCCc3ccc(NC(=O)CCCCCCCCCCC(=O)Nc4cccc5c4C(=O)N(C4CCC(=O)NC4=O)C5)cc3)n2)c1 (stereo not drawn) [Example 36, (E)-N^1-(2-(2,6-dioxopiperidin-3-yl)-3-oxoisoindolin-4-yl)-N^12-(4-(2-((4-(2-(3-methylbenzylidene)hydrazino)-6-morpholinopyrimidin-2-yl)oxy)ethyl)phenyl)dodecanediamide] | 100 to 10000
8 | Cc1cccc(/C=N/Nc2cc(N3CCOCC3)nc(OCCc3ccc(NC(=O)CCCC(=O)N[C@H](C(=O)N4C[C@H](O)C[C@H]4C(=O)NCc4ccc(-c5scnc5C)cc4)C(C)(C)C)cc3)n2)c1 [Example 41, N^1—((S)-1-((2S,4R)-4-hydroxy-2-((4-(4-methylthiazol-5-yl)benzyl)carbamoyl)pyrrolidine-1-yl)-3,3-dimethyl-1-oxobutan-2-yl)-N^5-(4-(2-((4-(2-((E)-3-methylbenzylidene) hydrazino)-6-morpholinopyrimidin-2-yl)oxy)ethyl)phenyl)glutaramide] | 1 to 100
9 | Cc1cccc(-c2ccn(-c3cc(N4CCOCC4)nc(OCCc4ccc(NC(=O)CCCCCNC(=O)COc5cc(-c6scnc6C)ccc5CNC(=O)[C@@H]5C[C@@H](O)CN5C(=O)[C@@H](NC(=O)C5(F)CC5)C(C)(C)C)cc4)n3)n2)c1 [Example 66, (2S,4R)-1-((S)-2-(1-fluorocyclopropane-1-carboxamido)-3,3-dimethylbutanoyl)-4-hydroxy-N-(4-(4-methylthiazol-5-yl)-2-(2-((6-((4-(2-((4-morpholino-6-(3-(m-tolyl)-1H-pyrazol-1-yl)pyrimidin-2-yl)oxy)ethyl)phenyl)amino)-6-oxohexyl)amino)-2-oxoethoxy)benzyl) pyrrolidine-2-carboxamide] | 1 to 100
10 | Cc1cccc(/C=N/Nc2cc(N3CCOCC3)nc(OCCc3ccc(NC(=O)CCCCCC(=O)N[C@H](C(=O)N4C[C@H](O)C[C@H]4C(=O)NCc4ccc(-c5scnc5C)cc4)C(C)(C)C)cc3)n2)c1 [Example 42, N^1—((S)-1-((2S,4R)-4-hydroxy-2-((4-(4-methylthiazol-5-yl)benzyl)carbamoyl)pyrrolidine-1-yl)-3,3-dimethyl-1-oxobutan-2-yl)-N^7-(4-(2-((4-(2-((E)-3-methylbenzylidene) hydrazino)-6-morpholinopyrimidin-2-yl)oxy)ethyl)phenyl)heptanediamide] | 1 to 100
11 | Cc1cccc(-c2ccn(-c3cc(N4CCOCC4)nc(OCCc4ccc(C#CC5CCN(C(=O)CC[C@H](NC(=O)[C@@H]6C[C@@H](O)CN6C(=O)[C@@H](NC(=O)C6(F)CC6)C(C)(C)C)c6ccc(-c7scnc7C)cc6)CC5)cc4)n3)n2)c1 [Example 71, (2S,4R)-1-((S)-2-(1-fluorocyclopropane-1-carboxamido)-3,3-dimethylbutanoyl)-4-hydroxy-N—((S)-1-(4-(4-methylthiazol-5-yl)phenyl)-4-(4-((4-(2-((4-morpholino-6-(3-(m-tolyl)-1H-pyrazol-1-yl)pyrimidin-2-yl)oxy)ethyl)phenyl)ethynyl)piperidin-1-yl)-4-oxobutyl) pyrrolidine-2-carboxamide] | 1 to 100
12 | Cc1cccc(/C=N/Nc2cc(N3CCOCC3)nc(OCCNC(=O)CCC(=O)N[C@H](C(=O)N3C[C@H](O)C[C@H]3C(=O)NCc3ccc(-c4scnc4C)cc3)C(C)(C)C)n2)c1 [Example 61, N^1—((S)-1-((2S,4R)-4-hydroxy-2-((4-(4-methylthiazol-5-yl)benzyl)carbamoyl)pyrrolidine-1-yl)-3,3-dimethyl-1-oxobutan-2-yl)-N^4-(2-((4-(2-((E)-3-methylbenzylidene) hydrazino)-6-morpholinopyrimidin-2-yl)oxy)ethyl)succinimide] | 100 to 10000
13 | Cc1cccc(/C=N/Nc2cc(N3CCOCC3)nc(OCCc3ccc(NC(=O)COc4cc(-c5scnc5C)ccc4CNC(=O)[C@@H]4C[C@@H](O)CN4C(=O)[C@@H](NC(=O)C4(F)CC4)C(C)(C)C)cc3)n2)c1 [Example 53, (2S,4R)-1-((S)-2-(1-fluorocyclopropane-1-carboxamido)-3,3-dimethylbutanoyl)-4-hydroxy-N-(2-(2-((4-(2-((4-(2-((E)-3-methylbenzylidene)hydrazino)-6-morpholinopyrimidin-2-yl)oxy)ethyl)phenyl)amino)-2-oxoethoxy)-4-(4-methylthiazol-5-yl)benzyl)pyrrolidine-2-carboxamide] | 1 to 100
14 | Cc1cccc(-c2ccn(-c3cc(N4CCOCC4)nc(OCCc4ccc(-c5ccc(NC(=O)C[C@H](NC(=O)[C@@H]6C[C@@H](O)CN6C(=O)[C@@H](NC(=O)C6(F)CC6)C(C)(C)C)c6ccc(-c7scnc7C)cc6)cc5)cc4)n3)n2)c1 [Example 87, (2S,4R)-1-((S)-2-(1-fluorocyclopropane-1-carboxamido)-3,3-dimethylbutanoyl)-4-hydroxy-N—((S)-1-(4-(4-methylthiazol-5-yl)phenyl)-3-((4′-(2-((4-morpholino-6-(3-(m-tolyl)-1H-pyrazol-1-yl)pyrimidin-2-yl)oxy)ethyl)-[1,1′-biphenyl]-4-yl)amino)-3-oxopropyl)pyrrolidine-2-carboxamide] | 1 to 100
15 | Cc1cccc(-c2ccn(-c3cc(N4CCOCC4)nc(OC4CCN(c5ccc(NC(=O)NC6CN(C(=O)C[C@H](NC(=O)[C@@H]7C[C@@H](O)CN7C(=O)[C@@H](NC(=O)C7(F)CC7)C(C)(C)C)c7ccc(-c8scnc8C)cc7)C6)cc5)CC4)n3)n2)c1 [Example 80, (2S,4R)-1-((S)-2-(1-fluorocyclopropane-1-carboxamido)-3,3-dimethylbutanoyl)-4-hydroxy-N—((S)-1-(4-(4-methylthiazol-5-yl)phenyl)-3-(3-(3-(4-(4-((4-morpholino-6-(3-(m-tolyl)-1H-pyrazol-1-yl)pyrimidin-2-yl)oxy)piperidin-1-yl)phenyl)ureido)azetidin-1-yl)-3-oxopropyl)pyrrolidine-2-carboxamide] | 1 to 100
